Results reported in patent US20110098325A1, “PYRIDINE BENZAMIDES AND PYRAZINE BENZAMIDES USED AS PKD INHIBITORS” (CANCER RESEARCH TECHNOLOGY LIMITED, priority 2006, published 2011).

Molecular target: T1, human full length PKD2 (Homo sapiens, UniProt Q9BZL6)
T1 construct: human full length PKD2 at ˜100 μg/mL was purchased from Upstate Ltd; purchased Upstate Ltd 14-506
T1 sequence (Q9BZL6 1-878): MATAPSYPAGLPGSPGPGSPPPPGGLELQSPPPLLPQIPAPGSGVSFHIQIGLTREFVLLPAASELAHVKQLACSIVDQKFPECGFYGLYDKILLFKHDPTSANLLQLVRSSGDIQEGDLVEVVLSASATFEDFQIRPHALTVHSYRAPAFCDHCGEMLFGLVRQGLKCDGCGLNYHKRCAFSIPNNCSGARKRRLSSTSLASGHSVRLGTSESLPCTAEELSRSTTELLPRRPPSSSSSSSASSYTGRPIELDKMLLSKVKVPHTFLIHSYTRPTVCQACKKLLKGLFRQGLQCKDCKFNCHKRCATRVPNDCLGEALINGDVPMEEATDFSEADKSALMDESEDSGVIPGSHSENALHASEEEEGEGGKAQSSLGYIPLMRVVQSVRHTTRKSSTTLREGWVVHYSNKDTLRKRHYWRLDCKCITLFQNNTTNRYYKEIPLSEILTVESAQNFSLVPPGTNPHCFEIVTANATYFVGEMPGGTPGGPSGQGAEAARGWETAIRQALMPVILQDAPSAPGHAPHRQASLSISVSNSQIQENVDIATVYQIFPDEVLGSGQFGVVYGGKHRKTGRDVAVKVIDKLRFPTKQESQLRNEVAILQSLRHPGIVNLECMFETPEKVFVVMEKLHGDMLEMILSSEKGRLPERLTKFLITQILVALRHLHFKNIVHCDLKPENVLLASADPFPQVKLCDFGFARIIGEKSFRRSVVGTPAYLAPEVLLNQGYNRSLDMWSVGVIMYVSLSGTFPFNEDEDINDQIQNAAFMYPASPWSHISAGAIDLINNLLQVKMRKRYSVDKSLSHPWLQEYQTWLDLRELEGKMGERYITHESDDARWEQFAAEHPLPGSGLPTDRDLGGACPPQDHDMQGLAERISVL
Experiment: PKD2 (Human Full Length) Enzyme Activity Assay (IMAP fluorescence polarisation)
Format: biochemical
Conditions: stands directly after the PKD2 data (b743-b745); read-out: IC50, printed as PKD1 (Human Full Length) Enzyme Activity Assay
Method: Kinase Assay Reaction Buffer: This consisted of 0.22 μM filtered 25 mM HEPES and 10 mM MgCl2 pH 7.5.
Kinase: human full length PKD2 at ˜100 μg/mL was purchased from Upstate Ltd (Product code 14-506), and obtained from aliquots stored at −70° C. It was prepared with a final concentration of 0.1 μg/mL by diluting 1:300 in Reaction Buffer (30 μL per 9 mL-5 mL per plate with an additional 4 mL dead volume) and vortexing prior to use. It is necessary to check this concentration regularly in case of enzyme degradation.
Substrate: Fluorescein labelled glycogen synthase-derived peptide (FI)-KKLNRTLSVA (also known as MAPKAP K2 substrate) was obtained from Molecular Devices (Product code R7127). […]
5 μL Kinase/Substrate in Reaction Buffer was added to ‘test’ and all ‘control’ wells of a Corning black low binding 384 well (90 μL volume) microplate to give 0.1 μg/mL and 2 μM reaction concentration respectively. […] The fluorescence polarisation of the peptide substrate was measured using an analyst (Molecular devices) microplate reader with a single read at Ex485 Em535 (Analyst settings: Z Height 5 mm, G Factor 0.95, Reads/well 1, Integration 100000 μs, Gain Sensitivity 2).
Percentage inhibition was calculated based on activity of the test sample minus the average values in the blank wells relative to the average values measured in control wells minus the average values in the blank wells. […]

| SMILES | IC50 [nM] |
| --- | --- |
| COc1cc(-c2cc(-c3cccc(C(=O)NCCN(C)C)c3)cnc2N)ccc1O [Y-059, 3-[6-Amino-5-(4-hydroxy-3-methoxy-phenyl)-pyridin-3-yl]-N-(2-dimethylamino-ethyl)-benzamide] | 32 |
| COc1cc(-c2cncc(-c3cccc(C(=O)NCCN(C)C)c3)n2)ccc1O [X-007, N-(2-Dimethylamino-ethyl)-3-[6-(4-hydroxy-3-methoxy-phenyl)-pyrazin-2-yl]-benzamide] | 420 |
